From PMC4979060, “Structural basis of metallo-β-lactamase, serine-β-lactamase and penicillin-binding protein inhibition by cyclic boronates” (Nature Communications, 2016)

Legend:
BcII = molecular target: T1, BcII (Bacillus cereus, UniProt P04190); assay: Fluorogenic β-lactamase inhibition assay (FC-5 substrate), BcII; type: biochemical
T1 construct: made in house; host or cells: E. coli
Experimental: (§1) Kinetic and inhibition analyses, and ^19F NMR studies[10] against bacterial β-lactamases were performed as described. The FC-5 cephalosporin[9] was used as substrate for BcII, VIM-2, IMP-1, NDM-1, SPM-1, TEM-1 and OXA-10, meropenem[28] for CphA and nitrocefin[34] for PBP 3 and PBP 5.
(§2) In brief IC50 values were determined by preincubation of the appropriate amount of enzyme with the cyclic boronates in the assay buffers for 10 min at room temperature prior to the initiation of the assay by the addition of the appropriate substrate. The enzyme concentrations used are the following: 1 nM BcII, 100 nM VIM-2, 10 nM IMP-1, 10 nM NDM-1, 1 nM SPM-1, 1 nM TEM-1, 1 nM OXA-10, 2.5 nM CphA, 4 μM PBP 3 and 5 μM PBP 5; note that the final concentrations are stated. The assay buffers used are the following: 50 mM HEPES, pH 7.2 supplemented with 1 μg BSA, 1 μg ZnSO4 and 0.01% Triton for BcII, VIM-2, IMP-1, NDM-1 and SPM-1, 15 mM MES, pH 6.5 for CphA, 50 mM HEPES, pH 7.2 supplemented with 200 mM NaCl and 0.01% Triton 100 for TEM-1, 100 mM sodium phosphate, pH 7.2 supplemented with 50 mM NaHCO3 and 0.01% Triton 100 for OXA-10 and 50 mM HEPES, pH 7.2 supplemented with 200 mM NaCl and 0.01% Triton 100 for PBP 3 and PBP 5. The amount of substrates used is the following: 5 μM for BcII, VIM-2, IMP-1, NDM-1 and SPM-1, 10 μM for TEM-1 and OXA-10, 125 μM for CphA and 25 μM for PBP 3 and PBP 5; note that the final concentrations are stated.
(§3) The experiments were performed using a PHERAstar FS microplate reader (BMG Labtech) at room temperature (24–25 °C). All enzymes and inhibitors were prepared in the specific assay buffer. The kinetic values in this study are the means from at least three independent measurements; at least nine different concentrations of the inhibitor were used to determine the kinetic parameters (IC50). The IC50 values were determined using the software package Graph Prism 5.

M67C NDM-1 = M67C NDM-1 (Klebsiella pneumoniae, UniProt C7C422, M67C); assay: 19F-protein NMR binding study; settings: M67C NDM-1 labelled with 1,1,1-trifluoro-3-bromo acetone
Experimental: as §1
Supplementary Fig. 1. 19F NMR analyses of the NDM-1*-di-Zn(II)-2 complex. Titration using 2 gave rise to a new signal corresponding to a 2-NDM-1* complex, even at low concentrations of 2 indicating tight binding; at a 1:1, enzyme:inhibitor ratio (NDM-1*:2) no signals corresponding to uncomplexed NDM-1* species were observed. NDM-1* = NDM-1 M67C variant modified by reaction with BrCH COCF 1.
Supplementary Fig. 2. Cytotoxicity of 1,2 and Staurosporine (a control) using HEK293 cells.
(also on this page, place not known: enzyme: inhibitor NDM -1 BrCH2COCF3 -2 -1 0 1 0.5 1.0 1.5 - Log concentration (µM) Abs 490 HEK293 - 2 HEK293 - 1 Staurosporine HEK293) […]

NDM-1 = molecular target: T2, NDM-1 (Klebsiella pneumoniae, UniProt C7C422); assay: Fluorogenic β-lactamase inhibition assay (FC-5 substrate), NDM-1; type: biochemical
T2 construct: made in house; host or cells: E. coli
Experimental: as §1, §2, §3

SPM-1 = SPM-1 (Pseudomonas aeruginosa, UniProt Q8G9Q0); assay: Fluorogenic β-lactamase inhibition assay (FC-5 substrate), SPM-1; type: biochemical
Experimental: as §1, §2, §3

CphA = molecular target: T3, CphA (Aeromonas hydrophila, UniProt P26918); assay: B2 MBL inhibition assay (meropenem substrate), CphA; type: biochemical, Aeromonas hydrophilia
T3 construct: made in house; host or cells: E. coli
Experimental: as §1, §2, §3

VIM-2 = molecular target: T4, VIM-2 (Escherichia coli, UniProt Q5U7L7); assay: Fluorogenic β-lactamase inhibition assay (FC-5 substrate), VIM-2; type: biochemical
T4 construct: made in house; host or cells: E. coli
Experimental: as §1, §2, §3

HEK293 cells = assay: Cytotoxicity assay (MTS); type: cell-based; settings: human HEK293 cells, concentrations up to 100 μM, 24 h
Experimental: HEK293 cells were seeded (2,000 per well) in normal DMEM in 96-well plates.[34] After 24 h, wells were dosed with titrated concentration of compounds in 1% dimethyl sulphoxide (DMSO)—final volume of media about 100 μl. Following a further 24 h incubation period, 20 μl tetrazolium (MTS, CellTiter96Aqueous One Solution (Promega)) was added to the media in each well. The plate was incubated at 37 °C, 5% CO2 for 4 h in the dark before absorbance was read at 490 nm to determine cell proliferation values.

K. pneumoniae IR8 = assay: microbe, parasite or virus in culture; type: cell-based; settings: Klebsiella pneumoniae; 2 alone; K. pneumoniae IR8 (blaSHV-1; blaDHA-1; blaCTX-M-15; blaTEM-1; blaNDM-1); read-out: 2 MIC
Source text: Bacterial strains: E. coli ATCC 25922 (ref. [35]) and K. pneumoniae NCTC 5055 (ref. [36]) were used as reference strains. K. pneumoniae Ecl8 (ref. [16]) and its ramR knock-out[37] were used as previously described. K. pneumoniae strain IR8 (ref. [40]), and E. coli strains IR10 and IR60 (ref. [17]) were generous gifts of Prof. T.R. Walsh. Plasmid pSU18:NDM-1 contains the complete blaNDM-1 open reading frame, together with its promoter, cloned into plasmid pSU18 (ref. [41]). The recombinant plasmid was made by PCR amplifying the blaNDM-1 gene and surrounding sequences from E. coli IR10 with primers NDM1F 5′- […] -3′ and NDM1R 5′- GGCGATGACAGCATCATC -3′, TA cloning the amplicon into pCR2.1 TOPO (Invitrogen) and subcloning into pSU18 using BamHI and XbaI.
MIC values were determined by broth microdilution, in triplicate, in cation-adjusted Mueller Hinton broth (Sigma) according to the Clinical Laboratory Standards Institute (CLSI) guidelines. Experiments were carried out in microtitre plates (Corning) containing the medium plus meropenem (Sequoia Research Products, Pangbourne, UK) and/or inhibitor 2 as appropriate. Chloramphenicol (20 μg ml^−1) was included in assays of strains (K. pneumoniae Ecl8 and derivative) that carried pSU18 plasmids or derivatives (pSU18:NDM-1) to ensure maintenance of plasmids throughout. Inhibitor 2 was dissolved in DMSO to 100 mg ml^−1 and diluted in broth. The final concentration of DMSO in the assays was kept constant at 0.01% (experiments using 10 μg ml^−1 inhibitor) or 0.03% (experiments using 25 μg ml^−1 inhibitor). Plates were incubated overnight at 37 °C for 18–24 h and absorbance at 600 nm read using a Polarstar Omega (BMG LabTech) plate reader.

TEM-1 = molecular target: T5, TEM-1 (Escherichia coli, UniProt P62593); assay: Fluorogenic β-lactamase inhibition assay (FC-5 substrate), TEM-1; type: biochemical
T5 construct: made in house; host or cells: E. coli
Experimental: as §1, §2, §3

## NCc1ccc(C(=O)N[C@H]2Cc3cccc(C(=O)O)c3O[B-]2(O)O)cc1 [compound 2]
BcII
  pIC50: 6.5
BcII; 10 min preincubation
  IC50: 300 nM
M67C NDM-1
  binding to the active site by 19F NMR titration: tight binding
NDM-1
  pIC50: 7.5
NDM-1; 10 min preincubation
  IC50: 29 nM
SPM-1
  pIC50: 4.7
SPM-1; 10 min preincubation
  IC50: 16700 nM
CphA
  pIC50: > 4
CphA; 10 min preincubation
  IC50: > 100000 nM
VIM-2
  pIC50: 8.5
VIM-2; 10 min preincubation
  IC50: 3 nM
HEK293 cells
  cytotoxicity: Neither 1 nor 2 showed cytotoxicity
K. pneumoniae IR8
  MIC: > 128 µg/mL
TEM-1
  pIC50: 8.4
TEM-1; 10 min preincubation
  IC50: 3 nM
